Assay results as given in patent US4073935A, “Substituted propanol-(2)-derivatives and their nicotinic acid esters, and process for their preparation, and the use thereof as hypolipemic drugs” (Klinge Pharma GmbH & Co., priority 1974, dated 1978).
Like-named read-outs stand apart in the source and are kept apart here.

Tested on: serum lipids
Test: Lipid-lowering action in normolipemic rats
Type: in vivo
Conditions: Rattus norvegicus, 72 h, 4 × 100 mg/kg oral over 3 days, male Wistar rats, vs controls, X ± Sx
Procedure: Lipid-lowering action was tested on groups of 10 male Wistar rats (Ivanovas-Kisslegg), weight 200-220 g, normolipemic, or ordinary ration ("ssniff" complete feed).
The test compounds were taken up in an aqueous solution of 0.25% agar and 0.85% NaCl and administered orally. After administration of 4 × 100 mg/kg over a period of 3 days, the animals were bled by cardiac puncture after privation of […] for 4 hours.^1
^1 H. Enomoto and R. Zschocke, 3rd Int. Symp. Atheroscler, Berlin 1973, Abstr. 238.
Serum lipids were determined with a Technicon autoanalyzer. Total cholesterol (TC) was tested by the Liebermann-Burchard reaction. Quantitative analysis for triglycerides (TG) was performed by Eggstein and Kreutz's enzyme method (Klin. Wschr. 44, 262, 1966), modified for autoanalyzer.
Lipid lowering effect is expressed as percent lowering of total cholesterol and triglycerides compared to controls.

[1] = read-out: % Lowering TC (total cholesterol)
[2] = read-out: % Lowering TG (triglycerides)

## CC(C)(C)c1ccc(OCC(O)COc2ccc(C(=O)O)cc2)cc1 (centres unmarked) [Compound 59, 3-(4'-Carboxyphenoxy)-1-(4'-t-butylphenoxy)-propanol-(2)]
[1]
  inhibition in vivo at 100 mg/kg: 45.7 ± 14.3%
[2]
  inhibition in vivo at 100 mg/kg: 66.7 ± 8.1%

## COC(=O)c1ccc(OCC(O)CNc2ccc(C(C)(C)C)cc2)cc1 (centres unmarked) [Compound 35]
[1]
  inhibition in vivo at 100 mg/kg: 51.9 ± 9.3%
[2]
  inhibition in vivo at 100 mg/kg: 79.2 ± 9%

## COC(=O)CCc1ccc(OCC(O)COc2ccc(Cl)cc2)cc1 (centres unmarked) [Compound 9]
[1]
  inhibition in vivo at 100 mg/kg: 44.5 ± 17.5%
[2]
  inhibition in vivo at 100 mg/kg: 87.9 ± 11.9%

## COCCOC(=O)c1ccc(OCC(O)COc2ccc(Cl)cc2)cc1 (centres unmarked) [Compound 45]
[1]
  inhibition in vivo at 100 mg/kg: 51.7 ± 12.2%
[2]
  inhibition in vivo at 100 mg/kg: 75.8 ± 17.1%

## O=C(O)c1ccc(OCC(O)CNc2ccc(Cl)cc2)cc1 (centres unmarked) [Compound 65, 3-(4'-Carboxyphenoxy)-1-(4'-chlorphenylamino)-propanol-(2)]
[1]
  inhibition in vivo at 100 mg/kg: 20.9 ± 13.7%
[2]
  inhibition in vivo at 100 mg/kg: 72.9 ± 11.3%

## CC(C)(C)c1ccc(OCC(O)CNc2ccc(C(=O)O)cc2)cc1 (centres unmarked) [Compound 70, 3-(4'-Carboxyphenylamino)-1-(4'-t-butylphenoxy)-propanol-(2)]
[1]
  inhibition in vivo at 100 mg/kg: 33.3 ± 12.2%
[2]
  inhibition in vivo at 100 mg/kg: 78.1 ± 10.4%

## COC(=O)CCc1ccc(OCC(O)COc2ccc(C(C)(C)C)cc2)cc1 (centres unmarked) [Compound 22, 3-(4'-(2-methoxycarbonylethyl)-phenoxy)-1-(4'-tert.-butylphenoxy)-propanol-(2)]
[1]
  inhibition in vivo at 100 mg/kg: 46.9 ± 11.4%
[2]
  inhibition in vivo at 100 mg/kg: 79 ± 10.7%

## CC(C)(C)c1ccc(NCC(O)COc2ccc(C=CC(=O)O)cc2)cc1 (centres unmarked) [Compound 74, 3-4'-(2-Carboxyvinyl)-phenoxy!-1-(4'-t-butylphenylamino)-propanol-(2)]
[1]
  inhibition in vivo at 100 mg/kg: 50.7 ± 6.4%
[2]
  inhibition in vivo at 100 mg/kg: 69.7 ± 9.6%

## CC(C)(C)c1ccc(SCC(O)COc2ccc(C(=O)O)cc2)cc1 (centres unmarked) [Compound 80, 3-(4'-Carboxyphenoxy)-1-(4'-t-butylphenylmercapto)-propanol-(2)]
[1]
  inhibition in vivo at 100 mg/kg: 48.2 ± 11.6%
[2]
  inhibition in vivo at 100 mg/kg: 71.6 ± 18.6%

## COCCOC(=O)c1ccc(OCC(O)COc2ccc(C(C)(C)C)cc2)cc1 (centres unmarked) [Compound 49]
[1]
  inhibition in vivo at 100 mg/kg: 33.1 ± 16.7%
[2]
  inhibition in vivo at 100 mg/kg: 76.1 ± 14.6%

## C=CCOC(=O)c1ccc(OCC(O)COc2ccc(C(C)(C)C)cc2)cc1 (centres unmarked) [Compound 17]
[1]
  inhibition in vivo at 100 mg/kg: 55.8 ± 7.1%
[2]
  inhibition in vivo at 100 mg/kg: 83.4 ± 8.8%

## COC(=O)c1ccc(OCC(O)COc2ccc(Cl)cc2)cc1 (centres unmarked) [Compound 1, 3-(4'-methoxycarbonylphenoxy)-1-(4'-chlorophenoxy)propanol-(2)]
[1]
  inhibition in vivo at 100 mg/kg: 47.9 ± 10.2%
[2]
  inhibition in vivo at 100 mg/kg: 63.8 ± 17.2%

## CCOC(=O)c1ccc(OCC(O)COc2ccc(Cl)cc2)cc1 (centres unmarked) [Compound 2]
[1]
  inhibition in vivo at 100 mg/kg: 40.4 ± 24.3%
[2]
  inhibition in vivo at 100 mg/kg: 60.2 ± 8.4%

## CC(C)OC(=O)c1ccc(OCC(COc2ccc(Cl)cc2)OC(=O)c2cccnc2)cc1 (centres unmarked) [Compound 96]
[1]
  inhibition in vivo at 100 mg/kg: 36.8 ± 14.3%
[2]
  inhibition in vivo at 100 mg/kg: 74 ± 4.8%

## CC(C)(C)c1ccc(OCC(O)COc2ccc(C3OCCO3)cc2)cc1 (centres unmarked) [Compound 114]
[1]
  inhibition in vivo at 100 mg/kg: 67.9 ± 6.6%
[2]
  inhibition in vivo at 100 mg/kg: 91.6 ± 4.8%

## CC(C)OC(=O)c1ccc(OCC(O)CNc2ccc(Cl)cc2)cc1 (centres unmarked) [Compound 28]
[1]
  inhibition in vivo at 100 mg/kg: 30.8 ± 9.7%
[2]
  inhibition in vivo at 100 mg/kg: 64.6 ± 16.9%

## O=C(NO)c1ccc(OCC(O)COc2ccc(Cl)cc2)cc1 (centres unmarked) [Compound 105]
[1]
  inhibition in vivo at 100 mg/kg: 29.8 ± 14.3%
[2]
  inhibition in vivo at 100 mg/kg: 53.2 ± 11.2%

## CC(C)(C)c1ccc(NCC(O)COc2ccc(C(=O)O)cc2)cc1 (centres unmarked) [Compound 72, 3-(4'-Carboxyphenoxy)-1-(4'-t-butylphenylamino)-propanol-(2)]
[1]
  inhibition in vivo at 100 mg/kg: 53.7 ± 10.4%
[2]
  inhibition in vivo at 100 mg/kg: 75.1 ± 9.9%

## COC(=O)c1ccc(OCC(COc2ccc(Cl)cc2)OC(=O)c2cccnc2)cc1 (centres unmarked) [Compound 95, 3-(4'-methoxycarbonylphenoxy)-1-(4'-chlorophenoxy)-propanol-(2) nicotinic acid ester]
[1]
  inhibition in vivo at 100 mg/kg: 38.3 ± 15.4%
[2]
  inhibition in vivo at 100 mg/kg: 63.8 ± 14.8%
